Experiment [1] has as its target T1, Mitogen-activated protein kinase kinase kinase kinase 3 (Homo sapiens) (UniProt Q8IVH8).
T1 sequence (whole entry): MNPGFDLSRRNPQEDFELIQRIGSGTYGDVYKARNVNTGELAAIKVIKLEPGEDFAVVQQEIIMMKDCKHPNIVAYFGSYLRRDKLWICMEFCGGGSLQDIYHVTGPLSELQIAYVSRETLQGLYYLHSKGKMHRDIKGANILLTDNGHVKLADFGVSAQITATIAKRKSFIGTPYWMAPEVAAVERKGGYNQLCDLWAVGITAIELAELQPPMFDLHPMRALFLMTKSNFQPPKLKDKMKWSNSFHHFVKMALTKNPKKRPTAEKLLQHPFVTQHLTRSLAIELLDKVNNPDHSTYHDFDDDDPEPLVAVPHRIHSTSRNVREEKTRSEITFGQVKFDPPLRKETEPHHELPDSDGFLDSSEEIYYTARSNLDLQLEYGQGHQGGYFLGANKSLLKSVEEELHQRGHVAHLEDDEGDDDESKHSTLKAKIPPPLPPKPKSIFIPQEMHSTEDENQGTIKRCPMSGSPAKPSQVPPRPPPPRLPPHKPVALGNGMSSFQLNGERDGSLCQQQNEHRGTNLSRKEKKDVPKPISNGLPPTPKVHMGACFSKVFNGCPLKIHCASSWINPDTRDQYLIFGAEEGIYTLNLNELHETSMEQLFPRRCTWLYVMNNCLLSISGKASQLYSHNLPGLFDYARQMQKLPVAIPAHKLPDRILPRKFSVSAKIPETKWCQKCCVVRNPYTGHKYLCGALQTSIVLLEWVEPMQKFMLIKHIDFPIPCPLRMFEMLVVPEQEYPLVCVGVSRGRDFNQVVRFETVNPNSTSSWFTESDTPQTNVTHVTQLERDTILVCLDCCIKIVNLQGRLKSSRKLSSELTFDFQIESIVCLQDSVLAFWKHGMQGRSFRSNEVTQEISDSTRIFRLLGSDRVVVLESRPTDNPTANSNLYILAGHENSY
To be noted: at 10 µM.

Experiment [2] has as its target Phosphatidylinositol 4-kinase beta (Homo sapiens, UniProt Q9UBF8). As to the kind of experiment: Selectivity interaction (ActivX KiNativ screen (kinase selectivity in THP-1 cell lysates)) EUB0000639a PI4KB. To be noted: lysate, at 0.01 µM. The experiment is classed as subcellular.
In experiment [3] the target is Serine/threonine-protein kinase PAK 2 (Homo sapiens) (UniProt Q13177). As to the kind of experiment: Selectivity interaction (Kinase panel (Invitrogen)) EUB0000639a PAK2. To be noted: at 200 nM.
The target in experiment [4] is Tyrosine-protein kinase ABL1 (Homo sapiens, UniProt P00519). As to the kind of experiment: Selectivity interaction (Kinase panel (33PanQinase(R) Activity Assay)) EUB0000877a ABL1.
Experiment [5] concerns the target T2, Mitogen-activated protein kinase kinase kinase 15 (Homo sapiens) (UniProt Q6ZN16).
T2 sequence (whole entry): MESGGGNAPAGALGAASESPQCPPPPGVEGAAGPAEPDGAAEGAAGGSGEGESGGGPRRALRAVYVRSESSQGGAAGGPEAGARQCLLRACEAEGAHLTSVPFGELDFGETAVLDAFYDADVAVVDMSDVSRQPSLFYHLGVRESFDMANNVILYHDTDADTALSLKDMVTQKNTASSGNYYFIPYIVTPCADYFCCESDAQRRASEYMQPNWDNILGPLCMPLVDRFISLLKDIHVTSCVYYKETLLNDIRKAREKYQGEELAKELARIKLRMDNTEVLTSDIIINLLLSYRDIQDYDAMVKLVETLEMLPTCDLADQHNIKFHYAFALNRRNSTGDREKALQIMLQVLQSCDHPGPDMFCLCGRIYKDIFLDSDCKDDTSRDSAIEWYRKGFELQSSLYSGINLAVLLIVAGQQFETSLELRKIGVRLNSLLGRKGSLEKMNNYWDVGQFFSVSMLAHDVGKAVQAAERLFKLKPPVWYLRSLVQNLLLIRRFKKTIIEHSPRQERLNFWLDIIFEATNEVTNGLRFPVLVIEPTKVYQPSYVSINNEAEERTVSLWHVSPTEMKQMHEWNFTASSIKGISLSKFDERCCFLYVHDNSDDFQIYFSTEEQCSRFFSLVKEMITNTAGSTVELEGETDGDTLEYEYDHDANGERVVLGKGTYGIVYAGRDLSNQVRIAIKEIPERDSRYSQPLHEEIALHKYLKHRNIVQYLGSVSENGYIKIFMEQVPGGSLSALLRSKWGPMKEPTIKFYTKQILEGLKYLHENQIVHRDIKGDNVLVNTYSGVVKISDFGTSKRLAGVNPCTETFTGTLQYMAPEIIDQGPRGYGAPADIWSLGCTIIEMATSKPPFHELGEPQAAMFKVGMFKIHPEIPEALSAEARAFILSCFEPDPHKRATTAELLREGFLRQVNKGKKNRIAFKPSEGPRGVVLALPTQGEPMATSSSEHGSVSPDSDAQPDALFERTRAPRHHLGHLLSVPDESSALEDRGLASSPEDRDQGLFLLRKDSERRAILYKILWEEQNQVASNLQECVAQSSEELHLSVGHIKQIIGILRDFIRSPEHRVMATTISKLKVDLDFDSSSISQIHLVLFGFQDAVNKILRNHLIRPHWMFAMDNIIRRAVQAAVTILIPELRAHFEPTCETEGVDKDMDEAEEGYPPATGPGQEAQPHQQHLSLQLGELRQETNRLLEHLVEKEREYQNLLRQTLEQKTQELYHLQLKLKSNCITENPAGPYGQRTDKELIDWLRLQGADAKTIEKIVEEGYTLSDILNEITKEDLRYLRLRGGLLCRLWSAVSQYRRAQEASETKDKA
In words: Selectivity interaction (KinomeScan (DiscoverX)) EUB0000618a MAP3K15. To be noted: at 10 µM.

Chain of Phosphatidylinositol 4-kinase beta (Q9UBF8 2-816 limits assumed): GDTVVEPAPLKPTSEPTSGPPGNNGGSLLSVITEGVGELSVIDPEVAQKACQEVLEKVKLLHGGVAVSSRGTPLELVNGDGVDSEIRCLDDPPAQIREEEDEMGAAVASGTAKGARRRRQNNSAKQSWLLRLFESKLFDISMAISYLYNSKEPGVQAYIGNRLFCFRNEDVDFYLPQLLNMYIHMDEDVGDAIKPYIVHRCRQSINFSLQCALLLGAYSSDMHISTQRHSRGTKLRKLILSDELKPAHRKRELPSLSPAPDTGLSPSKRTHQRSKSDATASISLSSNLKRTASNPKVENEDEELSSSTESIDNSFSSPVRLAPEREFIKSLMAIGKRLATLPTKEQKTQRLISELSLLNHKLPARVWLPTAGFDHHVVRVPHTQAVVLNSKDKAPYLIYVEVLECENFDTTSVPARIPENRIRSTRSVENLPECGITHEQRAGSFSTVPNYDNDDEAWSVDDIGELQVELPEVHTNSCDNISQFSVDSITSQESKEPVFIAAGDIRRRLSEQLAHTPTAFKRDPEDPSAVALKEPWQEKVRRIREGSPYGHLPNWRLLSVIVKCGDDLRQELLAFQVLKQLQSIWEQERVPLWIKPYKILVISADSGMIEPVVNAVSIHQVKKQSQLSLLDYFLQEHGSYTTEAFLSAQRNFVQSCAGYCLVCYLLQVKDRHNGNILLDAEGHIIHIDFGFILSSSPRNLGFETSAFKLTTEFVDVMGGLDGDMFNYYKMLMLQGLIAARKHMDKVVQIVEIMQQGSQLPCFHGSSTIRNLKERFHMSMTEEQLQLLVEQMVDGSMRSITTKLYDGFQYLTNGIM
Chain of Serine/threonine-protein kinase PAK 2 (Homo sapiens) (Q13177 whole entry): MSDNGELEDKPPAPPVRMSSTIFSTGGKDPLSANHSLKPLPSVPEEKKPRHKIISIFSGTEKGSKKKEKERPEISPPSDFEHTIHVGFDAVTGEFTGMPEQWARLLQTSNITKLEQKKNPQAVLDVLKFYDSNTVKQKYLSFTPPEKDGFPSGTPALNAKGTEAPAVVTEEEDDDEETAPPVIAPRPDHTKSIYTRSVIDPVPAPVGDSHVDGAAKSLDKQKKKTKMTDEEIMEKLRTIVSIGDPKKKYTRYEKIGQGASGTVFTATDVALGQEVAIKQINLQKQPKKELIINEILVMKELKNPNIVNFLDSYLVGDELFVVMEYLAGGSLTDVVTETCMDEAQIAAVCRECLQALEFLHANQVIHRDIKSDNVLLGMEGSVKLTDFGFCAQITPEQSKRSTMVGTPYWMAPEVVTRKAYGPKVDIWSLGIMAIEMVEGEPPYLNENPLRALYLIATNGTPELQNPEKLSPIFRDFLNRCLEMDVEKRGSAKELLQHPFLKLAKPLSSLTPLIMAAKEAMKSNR
Chain of Tyrosine-protein kinase ABL1 (P00519 whole entry): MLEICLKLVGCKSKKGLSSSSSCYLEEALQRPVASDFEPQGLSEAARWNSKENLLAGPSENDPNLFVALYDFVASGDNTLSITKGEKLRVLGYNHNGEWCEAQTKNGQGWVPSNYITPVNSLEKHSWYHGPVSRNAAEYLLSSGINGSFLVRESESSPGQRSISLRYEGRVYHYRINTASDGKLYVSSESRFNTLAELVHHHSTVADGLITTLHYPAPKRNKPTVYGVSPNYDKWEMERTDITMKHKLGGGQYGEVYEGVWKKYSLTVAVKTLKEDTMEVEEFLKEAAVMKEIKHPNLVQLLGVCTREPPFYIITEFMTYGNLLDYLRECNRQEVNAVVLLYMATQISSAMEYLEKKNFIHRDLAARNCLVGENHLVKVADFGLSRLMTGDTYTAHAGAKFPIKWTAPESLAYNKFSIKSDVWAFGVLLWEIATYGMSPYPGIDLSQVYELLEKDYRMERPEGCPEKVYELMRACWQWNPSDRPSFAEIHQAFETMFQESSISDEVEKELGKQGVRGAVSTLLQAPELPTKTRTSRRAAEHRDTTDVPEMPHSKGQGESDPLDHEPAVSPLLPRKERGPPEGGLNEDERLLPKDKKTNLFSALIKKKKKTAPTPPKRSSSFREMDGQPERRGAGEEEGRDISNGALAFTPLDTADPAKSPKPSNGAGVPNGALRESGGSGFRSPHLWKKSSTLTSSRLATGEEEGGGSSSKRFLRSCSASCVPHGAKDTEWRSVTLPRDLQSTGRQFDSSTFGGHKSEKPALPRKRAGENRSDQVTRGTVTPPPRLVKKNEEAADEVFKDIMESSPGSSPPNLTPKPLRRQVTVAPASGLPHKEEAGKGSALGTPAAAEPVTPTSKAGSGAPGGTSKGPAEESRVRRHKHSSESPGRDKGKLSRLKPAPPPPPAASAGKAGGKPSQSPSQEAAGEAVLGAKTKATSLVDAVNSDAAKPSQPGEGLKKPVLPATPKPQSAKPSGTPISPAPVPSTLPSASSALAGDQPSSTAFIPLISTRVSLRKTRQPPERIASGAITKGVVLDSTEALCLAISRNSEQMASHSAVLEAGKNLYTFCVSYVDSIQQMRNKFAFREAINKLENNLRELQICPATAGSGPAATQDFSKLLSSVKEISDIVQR

In experiment [1], `CCN(CC)CCCCNc1ncc2cc(-c3cc(OC)cc(OC)c3)c(NC(=O)NC(C)(C)C)nc2n1` had a % of control of 100%. Regarding `CC[C@@H]1[C@H](F)C(=O)N[C@@H]1COc1nccc2cc(C(N)=O)c(OC)cc12` [ZIMLOVISERTIB], the % of inhibition in experiment [2] was 1.7%; in experiment [3], 3.6%.

For `CCC(=O)N1CC[C@H](Nc2ncnc3c2CN(c2cnc(OC)c(C(F)(F)F)c2)CC3)C1` [LENIOLISIB], in experiment [4], the IC50 (commonly the midpoint of a concentration-inhibition curve) was > 10 µM. As to `O[C@H]1CC[C@H](Nc2ncc3nc(Nc4c(F)cc(F)cc4F)n([C@H]4CCOC4)c3n2)CC1`, in experiment [5], the % of control worked out at 100%.

For the origin of these results see ChEMBL document CHEMBL5465560, “Selectivity Literature for EUbOPEN Chemogenomic Library” (2024).
